# Laboratory results from paper PMC12239973 (Science Advances, 2025).
# Entries after “also recorded” stand apart in the source; their conditions may differ. Where two headings read alike, the source gives them in different places.
# Tests used:
# human C5a release = assay: C5a release in the fluid phase of human serum with nanoparticles, ELISA; format: biochemical; conditions: for inhibition of C5a release: 100 μM; for IC50: read-out: C5a, IC50
# C3 [1] = assay: C3 opsonization of SPIO NWs in rat serum in vitro; format: biochemical, Sprague-Dawley rats; conditions: 100 μM
# C3 [2] = assay: C3 opsonization of SPIO NWs in mouse serum in vitro; format: biochemical, BALB/c mice
# C3 [3] = assay: C3 opsonization of SPIO NWs in dog sera in vitro; format: biochemical; conditions: 10 μM, five breeds
# human C3 deposition = assay: C3 deposition on nanoparticles in human serum, C3 dot-blot immunoassay; format: biochemical; conditions: for IC50: read-out: C3, IC50, healthy donor serum
# C3 [4] = format: biochemical, human; conditions: for inhibition of C3 opsonization of PLD, in words: two donors with top 10th percentile anti-PEG IgG/IgM, EGTA/Mg2+ 10 mM
# C3d = C3d deposition on PLD in plasma of donors with high anti-PEG titers; format: biochemical, human; conditions: two donors with high anti-PEG titers; EDTA 10 mM; EGTA/Mg2+ 10 mM; sutimlimab 200 μg/ml; iptacopan 10 μM
# blood leukocytes = assay: Blood leukocyte uptake of bolus-injected SPIO NWs in rats; format: in vivo, Sprague-Dawley rats
# dog C3 = assay: In vivo C3 opsonization of SPIO NWs in dogs; conditions: Beagle dogs; iptacopan 0.43 mg/kg IV; 30 min postinjection
# granulocytes = assay: Blood leukocyte uptake of bolus-injected SPIO NWs in dogs; format: in vivo; conditions: Beagle dogs; iptacopan 0.43 mg/kg IV coinjected with SPIO NWs 6.6 mg/kg; 30 and 60 min
# mouse C3 = assay: In vivo C3 opsonization of SPIO NWs in mice; design: species or system BALB/c mice; conditions: IV iptacopan, 5 min after the injection
# rat C3 = assay: In vivo C3 opsonization of SPIO NWs in rats; design: species or system Sprague-Dawley rats; conditions: high dose iptacopan 0.99 mg/kg, 60 min postinjection
# Beagle dogs = assay: Blood pressure in anesthetized dogs after bolus injection of SPIO NWs; format: in vivo; conditions: iptacopan IV 0.4285 mg/kg
# [5] = tested on: granulocytes and monocytes; format: cell-based, human; conditions: CR2-CR1 10 nM, iptacopan 20 μM; for efficacy on uptake across donors, in words: liposomes and LNPs, five donors
# [6] = tested on: granulocytes, monocytes, lymphocytes; assay: Blood leukocyte uptake of bolus-injected SPIO NWs in mice; format: in vivo, BALB/c mice
# Sprague-Dawley rats = assay: Rearing behavior of rats after bolus injection of SPIO NWs; format: in vivo
# C3 convertases = conditions: mice and dogs; cited from earlier work
# C4d = C4d deposition on PLD in plasma of donors with high anti-PEG titers; format: biochemical, human; conditions: two donors with high anti-PEG titers; EGTA/Mg2+ 10 mM; sutimlimab 200 μg/ml
# [7] = EDTA 10 mM, sutimlimab 200 μg/ml, iptacopan 10 μM
molecule,measurement,setting,value
"CC(=O)c1nn(CC(=O)N2C[C@H](F)C[C@H]2C(=O)Nc2cccc(Br)n2)c2ccc(-c3cnc(C)nc3)cc12 [Danicopan, danicopan]",inhibition of C5a release,"human C5a release; mRNA LNPs, donor F46",less than 60%
same,inhibition of C5a release,"human C5a release; mRNA LNPs, donors F38 and M61",completely inhibited
same,"C5a IC50, in words","human C5a release; mRNA LNPs, sera from three healthy donors",low micromolar
same,IC50,"human C5a release; CLIO NWs, human serum",6.93 nM
same,IC50,"human C5a release; Onivyde, human serum",2580 nM
same,IC50,"human C5a release; SPIO NWs, human serum",6.97 nM
same,IC50,"human C5a release; mRNA LNPs, donor F38 (table line matched to Fig. 2C)",1290 nM
same,IC50,"human C5a release; mRNA LNPs, donor F46 (table line matched to Fig. 2C)",7980 nM
same,IC50,"human C5a release; mRNA LNPs, donor M61 (table line matched to Fig. 2C)",71.2 nM
same,inhibition of C3,C3 [1],less than 50%
same,"inhibition in mouse serum, in words",C3 [2],poor inhibition
same,inhibition of C3 opsonization in dog sera,C3 [3],considerably less effective
same,inhibition of C3 deposition,"human C3 deposition; PLD, inhibitor at 100 μM, human serum",less than 50%
same,IC50,human C3 deposition; CLIO NWs,10800 nM
same,IC50,human C3 deposition; Onivyde,28100 nM
same,IC50,human C3 deposition; SPIO NWs,417 nM
O=C(O)CN(CCN(CC(=O)O)CC(=O)O)CC(=O)O [EDTA],"C3 on PLD blocked, on average","C3 [4]; lepirudin plasma, 10 donors, CR2-CR1 10 nM, EDTA 10 mM",~67%
same,"inhibition of C3 opsonization of PLD, in words",C3 [4]; [7],only partially inhibited
same,"inhibition of C3d deposition on PLD, in words",C3d,full inhibition
"CCO[C@H]1CCN(Cc2c(OC)cc(C)c3[nH]ccc23)[C@H](c2ccc(C(=O)O)cc2)C1 [Iptacopan, iptacopan]","inhibition of C3 opsonization of PLD, in words",C3 [4]; [7],marginally effective
same,"inhibition of C3 opsonization of PLD, in words","C3 [4]; EDTA 10 mM, sutimlimab 200 μg/ml, iptacopan 10 μM, listed as iptacopan",minimal inhibition
same,inhibition of uptake by granulocytes,"blood leukocytes; high-dose iptacopan 0.99 mg/kg, 60 min",significant inhibition
same,uptake of SPIO NWs by blood leukocytes,"blood leukocytes; iptacopan IV 0.21 mg/kg (low dose) and 0.99 mg/kg (high dose) with SPIO NWs 6.6 mg/kg, 60 min postinjection",inhibited uptake
same,dog C3 opsonization in the blood,dog C3,significantly decreased
same,number of magnetic granulocytes,granulocytes,significantly reduced
same,"inhibition of C3d deposition on PLD, in words",C3d,only partial activity
same,C3 opsonization of NWs retrieved from plasma,mouse C3,significantly decreased
same,rat C3 opsonization of NWs blocked,rat C3,more than 90%
same,inhibition of C3 opsonization in dog sera,C3 [3],significant inhibition
same,systolic and diastolic pressure after coinjection with SPIO NWs,Beagle dogs,prevents the drop in blood pressure; also recorded: restored
same,"efficacy on uptake across donors, in words",[5],effective in some donors
same,"efficacy on uptake across donors, in words",[5]; listed as iptacopan,effective in three of five donors
same,reduction of SPIO NWs uptake (number of magnetic cells),[5]; the one donor with measurable uptake,~ 60%
same,iptacopan administered intraperitoneally compared with IV,[6]; IP before SPIO NWs,equally effective
same,inhibition of uptake of SPIO NWs by monocytes and lymphocytes,[6]; iptacopan with NWs 10 mg Fe/kg,partial inhibition
same,rearings after coinjection with NWs,Sprague-Dawley rats; low or high dose of iptacopan,significant increase in rearings; also recorded: significantly normalized rearing behavior
CR1: human complement receptor 1 (soluble CR1 therapeutics),efficacy in animal species,C3 convertases,not effective
EGTA/Mg^2+,"inhibition of C3 opsonization of PLD, in words",C3 [4]; [7],strong inhibition
same,"inhibition of C3d deposition on PLD, in words",C3d,full inhibition
same,"inhibition of C4d deposition on PLD, in words",C4d,inhibited
PMX53,rearing behavior after coinjection with NWs,"Sprague-Dawley rats; PMX53 1 mg/kg IV, or 3 mg/kg IP + 1 mg/kg IV",did not restore; also recorded: not significantly increased
"Sutimlimab: monoclonal antibody that binds C1s; classical pathway inhibitor (antibody, chains of the INN, looked up, V domains shown) VH: EVQLVESGGGLVKPGGSLRLSCAASGFTFSNYAMSWVRQAPGKGLEWVATISSGGSHTYYLDSVKGRFTISRDNSKNTLYLQMNSLRAEDTALYYCARLFTGYAMDYWGQGTLVTVSS VL: QIVLTQSPATLSLSPGERATMSCTASSSVSSSYLHWYQQKPGKAPKLWIYSTSNLASGVPSRFSGSGSGTDYTLTISSLQPEDFATYYCHQYYRLPPITFGQGTKLEIK","inhibition of C3 deposition on PLD, in words","C3 [4]; lepirudin plasma, 10 donors, sutimlimab 200 μg/ml, iptacopan 10 μM",minimally effective
same,"inhibition of C3 opsonization of PLD, in words",C3 [4]; [7],marginal effectiveness; also recorded: minimal inhibition
same,"inhibition of C3d deposition on PLD, in words",C3d,only partial activity
same,"inhibition of C4d deposition on PLD, in words",C4d,does not inhibit
